Source: patent US7317037B2, “Progesterone receptor modulators comprising pyrrole-oxindole derivatives and uses thereof” (Wyeth, priority 2004, dated 2008)

Assays:
menses induction = test: Cynomolgus monkey menses induction assay; assay type: in vivo; settings: 5 mg/kg po
Description: C. Cynomolgus Monkey […] Induction 1. Experimental Design The effects of administered compound(s) in either a single dose or a dose-response paradigm versus an appropriate control (vehicle alone) are determined. When a compound is tested at a single dose, a group of four animals will be used for the dose. In the dose response study, each experiment will involve up to 5 groups of animals (a control group and 4 groups of animals treated with varying doses of the compound). Experimental groups will contain 3-4 animals/group, since this sample size is commonly used in the literature and has been found appropriate based on our own experience. The animals are treated with test compounds once or twice daily for 4 days in the mid-luteal phase of the menstrual cycle to assess the efficacy of the compounds on the reproductive parameters menstruation. 2. Procedures Initially, animals are characterized in terms of their reproductive cyclicity by observing time of menstruation. Only those animals with two consecutive normal cycles are used to evaluate test compounds. […] will be determined by daily gross examination for vaginal bleeding. In each experiment, animals will be treated once or twice daily IV, IM, SC or PO with the test compound. Appropriate vehicles will be determined for each route of administration and will be specified through protocol amendments. […]

[1] = system: rat uterine decidualization; test: Rat decidualization assay; assay type: in vivo; settings: po, read-out: ED50 in the rat decidual assay
Description: B. Progestational and Antiprogestational Activity in Mature Ovariectomized Rats (Rat Decidualization Assay)
This assay is used to evaluate the effect of progestins and antiprogestins on rat uterine decidualization and compare the relative potencies of various test compounds.
Test compounds are dissolved in 100% ethanol and mixed with corn oil (vehicle). Stock solutions of the test compounds in oil (Mazola™) are then prepared by heating (˜80° C.) the mixture to evaporate ethanol. Test compounds are subsequently diluted with 100% corn oil or 10% ethanol in corn oil prior to the treatment of animals. No difference in decidual response is found when these two vehicles are compared. […]
Approximately 24 hr after the third injection, decidualization is induced in one of the uterine horns of anesthetized rats by scratching the antimesometrial luminal epithelium with a blunt 21 G needle. […] Approximately 24 hr following the final treatment, rats are sacrificed by […] and bodyweight measured. […]
In agonist mode, the increase in weight of the decidualized uterine horn is calculated by D-horn/C-horn and logarithmic transformation is used to maximize normality and homogeneity of variance. […] EC50 is calculated from the transformed value. […] IC50 is calculated from the retransformed value. […]

[2] = Cynomolgus monkey intravenous pharmacokinetics; settings: in vivo, cynomolgus monkeys, 0.25 mg/kg i.v.
From the text: Therefore from the preceding data it is clear that the R6=fluorine group present in 5-(7-fluoro-3,3-dimethyl-2-oxo-2,3-dihydro-1H-indol-5-yl)-1-methyl-1H-pyrrole-2-carbonitrile dramatically improves the pharmacokinetic performance of the molecule. This improved pharmacokinetic performance translates in the cynomolgus menses induction assay to a dramatic improvement in activity.

[3] = target: T1, progesterone receptor (PR) (Homo sapiens, UniProt P06401); test: T47D cell alkaline phosphatase assay (antagonist mode); assay type: cell-based; settings: T47D cells, antagonist mode in the presence of 1 nM progesterone, 24 hours; read-out: IC50 (nM), T47D Cell Alkaline Phosphatase Assay
T1 construct: Effects of Progestins and Antiprogestins on Alkaline Phosphatase Activity in T47D Cells; endogenous in cells; host or cells: T47D cells
T1 sequence (P06401 1-933): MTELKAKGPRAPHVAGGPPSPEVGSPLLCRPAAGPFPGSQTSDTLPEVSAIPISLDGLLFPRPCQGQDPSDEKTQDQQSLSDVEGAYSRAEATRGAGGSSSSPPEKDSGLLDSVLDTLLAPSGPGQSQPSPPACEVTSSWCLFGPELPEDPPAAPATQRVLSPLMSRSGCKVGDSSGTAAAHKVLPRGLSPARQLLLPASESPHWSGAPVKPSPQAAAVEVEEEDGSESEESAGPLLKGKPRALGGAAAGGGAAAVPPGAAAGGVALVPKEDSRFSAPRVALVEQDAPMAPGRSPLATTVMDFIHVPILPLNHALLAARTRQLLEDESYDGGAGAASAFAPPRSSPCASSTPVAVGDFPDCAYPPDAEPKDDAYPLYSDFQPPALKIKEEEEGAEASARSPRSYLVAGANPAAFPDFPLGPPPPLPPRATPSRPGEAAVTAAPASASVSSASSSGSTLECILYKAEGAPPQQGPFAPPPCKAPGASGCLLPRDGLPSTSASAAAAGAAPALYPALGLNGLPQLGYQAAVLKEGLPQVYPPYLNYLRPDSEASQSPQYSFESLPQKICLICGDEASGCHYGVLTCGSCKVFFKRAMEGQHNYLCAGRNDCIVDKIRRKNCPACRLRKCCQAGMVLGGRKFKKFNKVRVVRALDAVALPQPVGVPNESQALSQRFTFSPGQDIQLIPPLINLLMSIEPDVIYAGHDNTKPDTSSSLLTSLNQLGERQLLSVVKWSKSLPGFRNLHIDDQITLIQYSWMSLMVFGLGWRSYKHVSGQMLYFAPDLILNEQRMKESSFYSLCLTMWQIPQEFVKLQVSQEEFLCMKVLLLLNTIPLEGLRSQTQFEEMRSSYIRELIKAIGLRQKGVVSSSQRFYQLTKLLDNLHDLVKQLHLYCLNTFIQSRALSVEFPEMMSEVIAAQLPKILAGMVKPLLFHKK
Description: A. Effects of Progestins and Antiprogestins on Alkaline Phosphatase Activity in T47D Cells (T47D Alkaline Phosphatase Assay)
Culture medium: DMEM:F12 (1:1) (GIBCO, BRL) supplemented with 5% (v/v) charcoal stripped fetal bovine serum (not heat-inactivated), 100 U/mL penicillin, 100 μg/mL streptomycin, and 2 mM GlutaMax (GIBCO, BRL).
Alkaline phosphatase assay buffer: I. 0.1M Tris-HCl, pH 9.8, containing 0.2% Triton X-100, 0.1M Tris-HCl, pH 9.8, containing 4 mM p-nitrophenyl phosphate (Sigma).
2. Cell Culture and Treatment:
Frozen T47D cells are thawed in a 37° C. water bath and diluted to 280,000 cells/mL in culture medium. To each well in a 96-well plate (Falcon, Becton Dickinson Labware), 180 μl of diluted cell suspension is added. Twenty μl of reference or test compounds diluted in the culture medium is then added to each well. When testing for progestin antagonist activity, reference antiprogestins or test compounds are added in the presence of 1 nM progesterone. The cells are incubated at 37° C. in a 5% CO2 humidified atmosphere for 24 hours. For high throughput screening, one concentration of each compound will be tested at 0.3 μg/mL. Based on an average molecular weight of 300 g/mol for the compounds in the library, the concentration is approximately 1 μM. Subsequently, active compounds will be tested in dose response assays to determine EC50 and IC50.
3. Alkaline Phosphatase Enzyme Assay:
At the end of treatment, the medium is removed from the plate. Fifty μl of assay buffer I is added to each well. The plates are shaken in a titer plate shaker for 15 min. Then 150 μl of assay buffer II is added to each well. Optical density measurements are taken at 5 min intervals for 30 min at a test wavelength of 405 nm.
4. Analysis of Dose-Response Data.
For reference and test compounds, a dose response curve is generated for dose vs. the rate of enzyme reaction (slope). Square root-transformed data are used for analysis of variance and nonlinear dose response curve fitting for both agonist and antagonist modes. Huber weighting is used to down-weight the effects of outliers. EC50 or IC50 values are calculated from the retransformed values. JMP software (SAS Institute, Inc.) is used for both one-way analysis of variance and non-4 linear dose response analysis in both single dose and dose response studies.
Progesterone and trimegestone are reference progestins and RU486 is the reference antiprogestin. All reference compounds are run in full dose response curves and the EC50 and IC50 values are calculated.

| Structure (SMILES) | IC50 [3] [nM] | also measured |
| --- | --- | --- |
| Cn1c(C#N)ccc1-c1ccc2c(c1)C(C)(C)C(=O)N2 [5-(3,3-Dimethyl-2-oxo-2,3-dihydro-1H-indol-5-yl)-1-methyl-1H-pyrrole-2-carbonitrile, reference compound] | – | induction of early onset of menses (menses induction): not active; ED50 [1]: 0.2 mg/kg; AUC(0-inf) ([2]; read-out: exposure (AUC0-∞)): 343 ng·h/mL; half-life ([2]; read-out: mean half life (t1/2) (converted)): 2.1 h |
| Cn1c(C#N)ccc1-c1cc(F)c2c(c1)C1(CCCC1)C(=O)N2 [5-(7′-fluoro-2′-oxo-1′,2′-dihydrospiro[cyclopentane-1,3′-indol]-5′-yl)-1-methyl-1H-pyrrole-2-carbonitrile] | 3.2 | – |
| Cn1c(C#N)ccc1-c1cc(F)c2c(c1)C1(CC1)C(=O)N2 [5-(7′-fluoro-2′-oxo-1′,2′-dihydrospiro[cyclopropane-1,3′-indol]-5′-yl)-1-methyl-1H-pyrrole-2-carbonitrile] | 10.8 | – |
| CC(C)(C)OC(=O)n1c(C#N)ccc1-c1cc(F)c2c(c1)C(C)(C)C(=O)N2 [tert-butyl 2-cyano-5-(7-fluoro-3,3-dimethyl-2-oxo-2,3-dihydro-1H-indol-5-yl)-1H-pyrrole-1-carboxylate] | 125 | – |

Second part, led by results:

| IC50 [3] [nM] | Structure (SMILES) | also measured |
| --- | --- | --- |
| 351 | Cn1c(C#N)ccc1-c1cc(F)c2c(c1)C(C)(C)C(=O)N2CCc1ccccc1 [5-[7-fluoro-3,3-dimethyl-2-oxo-1-(2-phenylethyl)-2,3-dihydro-1H-indol-5-yl]-1-methyl-1H-pyrrole-2-carbonitrile] | – |
| 48 | COC(=O)CN1C(=O)C(C)(C)c2cc(-c3ccc(C#N)n3C)cc(F)c21 [methyl [5-(5-cyano-1-methyl-1H-pyrrol-2-yl)-7-fluoro-3,3-dimethyl-2-oxo-2,3-dihydro-1H-indol-1-yl]acetate] | – |
